Assay results from ChEMBL document CHEMBL1201862, “PubChem BioAssay data set” (2004).
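Compound exposure: 48 hours, 5 concentrations, 96-well plates. The concentration for 50% growth inhibition is given as GI50.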 The source made the active and inactive calls. Cut-off read from the data, not from the text of the source: active = GI50 up to about 1.1 µM and inactive = higher.

Tests used:
Assay in all cases: inhibition of tumour cell growth, NCI panel, 48 h
K562 = system: K562
ACHN = system: ACHN
786-0 = system: 786-0
CCRF-CEM = system: CCRF-CEM
HOP-62 = system: HOP-62
RPMI-8226 = system: RPMI-8226
SK-MEL-5 = system: SK-MEL-5
TK-10 = system: TK-10
U-251 = system: U-251
OVCAR-3 = system: OVCAR-3
HCT-116 = system: HCT-116
PC-3 = system: PC-3
SF-539 = system: SF-539
A549 = system: A549
SK-MEL-2 = system: SK-MEL-2
Malme-3M = system: Malme-3M
MDA-N = system: MDA-N
MDA-MB-435 = system: MDA-MB-435
Hs-578T = system: Hs-578T
SN12C = system: SN12C

Compound | GI50 (K562) | GI50 (ACHN) | GI50 (786-0) | GI50 (CCRF-CEM) | GI50 (HOP-62) | GI50 (RPMI-8226) | GI50 (SK-MEL-5) | GI50 (TK-10) | GI50 (U-251) | GI50 (OVCAR-3) | GI50 (HCT-116) | GI50 (PC-3) | GI50 (SF-539) | GI50 (A549) | GI50 (SK-MEL-2) | GI50 (Malme-3M) | GI50 (MDA-N) | GI50 (MDA-MB-435) | GI50 (Hs-578T) | GI50 (SN12C)
O=c1c(Cc2ccccc2)c(-c2ccccc2)[nH]n1C1=NCCN1 | 53.5 µM (inactive) | 29.3 µM (inactive) | 37.3 µM (inactive) | 16.7 µM (inactive) | 56 µM (inactive) | 47 µM (inactive) | 32.4 µM (inactive) | 37.6 µM (inactive) | 33.6 µM (inactive) | 24.4 µM (inactive) | 24.6 µM (inactive) | 36.8 µM (inactive) | 58.1 µM (inactive) | 40.5 µM (inactive) | 28.4 µM (inactive) | 25.4 µM (inactive) | 38.5 µM (inactive) | 24.8 µM (inactive) | 39.4 µM (inactive) | 
Cc1cc(S(=O)(=O)N2CCNNC2=O)c(S)cc1Cl | 37.2 µM (inactive) | > 100 µM (inactive) | 19.9 µM (inactive) | 37 µM (inactive) |  | 71.4 µM (inactive) | > 100 µM (inactive) | > 100 µM (inactive) | > 100 µM (inactive) | > 100 µM (inactive) |  | > 100 µM (inactive) | 37 µM (inactive) | 56.4 µM (inactive) | > 100 µM (inactive) | 17.7 µM (inactive) | > 100 µM (inactive) | > 100 µM (inactive) | > 100 µM (inactive) | > 100 µM (inactive)
COc1ccc(C2c3cc4c(c(OC)c3CC3OCC(=O)C32)OCO4)cc1OC (configuration not stated) | 0.0504 µM (active) | < 0.01 µM (active) | 0.0348 µM (active) | 0.0371 µM (active) |  | 0.0501 µM (active) | 0.037 µM (active) | 60.7 µM (inactive) | 0.0504 µM (active) |  | 0.0516 µM (active) | 0.0619 µM (active) | 0.0246 µM (active) | 0.0647 µM (active) | 0.78 µM (active) |  | < 0.01 µM (active) | 0.0146 µM (active) | < 0.01 µM (active) | < 0.01 µM (active)
CN(C)CCCN1c2ccccc2CCc2ccc([N+](=O)[O-])cc21 | 30.3 µM (inactive) | 34.6 µM (inactive) | 33 µM (inactive) | 39.2 µM (inactive) | 25.7 µM (inactive) | 34.5 µM (inactive) | 15.8 µM (inactive) | 18.7 µM (inactive) | 29.3 µM (inactive) | 34.5 µM (inactive) | 26.9 µM (inactive) | 34.8 µM (inactive) |  | 34.6 µM (inactive) | 20.3 µM (inactive) | 19.5 µM (inactive) | 18.5 µM (inactive) | 17.9 µM (inactive) | > 100 µM (inactive) | 22.8 µM (inactive)
COc1ccc(/C=C/C(=O)N[C@@H]2C(=O)N3[C@@H]2SC(C)(C)[C@@H]3C(=O)O)cc1 | > 100 µM (inactive) | > 100 µM (inactive) | > 100 µM (inactive) | > 100 µM (inactive) | > 100 µM (inactive) | > 100 µM (inactive) | > 100 µM (inactive) | > 100 µM (inactive) | > 100 µM (inactive) | > 100 µM (inactive) | > 100 µM (inactive) | > 100 µM (inactive) | > 100 µM (inactive) | > 100 µM (inactive) | > 100 µM (inactive) |  | > 100 µM (inactive) | > 100 µM (inactive) | > 100 µM (inactive) | > 100 µM (inactive)
CC1CN(C)c2ccccc2N=C1NN (configuration not stated) | 88.3 µM (inactive) | > 100 µM (inactive) | > 100 µM (inactive) | 87.5 µM (inactive) | > 100 µM (inactive) | > 100 µM (inactive) | > 100 µM (inactive) | > 100 µM (inactive) | > 100 µM (inactive) | > 100 µM (inactive) | > 100 µM (inactive) | > 100 µM (inactive) |  | > 100 µM (inactive) | > 100 µM (inactive) | > 100 µM (inactive) | > 100 µM (inactive) | > 100 µM (inactive) | > 100 µM (inactive) | > 100 µM (inactive)
O=C(Nc1c(Cl)cccc1Cl)c1c(Cl)c(Cl)c(Cl)c(Cl)c1-c1nc2ccccc2[nH]1 | 59.3 µM (inactive) | 50.1 µM (inactive) | 36.4 µM (inactive) | > 100 µM (inactive) | 0.0501 µM (active) | 37.2 µM (inactive) | 29.9 µM (inactive) |  |  | 25.4 µM (inactive) | 43.5 µM (inactive) | > 100 µM (inactive) | 0.535 µM (active) | 0.601 µM (active) | > 100 µM (inactive) | > 100 µM (inactive) | 36 µM (inactive) | 38.2 µM (inactive) | 61.8 µM (inactive) | 49.5 µM (inactive)
Cn1c(=O)sc2cc(C(=S)N3CCC(Cc4ccccc4)CC3)ccc21 | 34.9 µM (inactive) | > 100 µM (inactive) | > 100 µM (inactive) | 25.2 µM (inactive) | > 100 µM (inactive) | 9.89 µM (inactive) | 26.9 µM (inactive) | > 100 µM (inactive) | 16.2 µM (inactive) | 53.8 µM (inactive) | 45.9 µM (inactive) | 37.9 µM (inactive) | > 100 µM (inactive) |  | > 100 µM (inactive) |  | 72.1 µM (inactive) | 27.5 µM (inactive) | 21.4 µM (inactive) | > 100 µM (inactive)
CC(NC(=O)c1ccc(NP(=O)(OCc2ccc([N+](=O)[O-])o2)N(C)CCCCCl)cc1)c1ccc(OCC2CCCCC2)c(C(N)=O)c1 (configuration not stated) | 17.3 µM (inactive) | 29 µM (inactive) | 17.5 µM (inactive) | 0.904 µM (active) | 16.9 µM (inactive) | 4.86 µM (inactive) | 4.56 µM (inactive) | 23.4 µM (inactive) | 19.4 µM (inactive) | 11.6 µM (inactive) | 16.2 µM (inactive) | 19.5 µM (inactive) | 16.5 µM (inactive) | 10.6 µM (inactive) | 16.1 µM (inactive) |  | 17.7 µM (inactive) | 12 µM (inactive) | 16.3 µM (inactive) | 18.9 µM (inactive)
COC(=O)C1=C(C(=O)OC)SC(=C2SCSC3=C2SC(C(=O)OC)=C(C(=O)OC)C32SC3=C(CCCC3)S2)S1 | > 100 µM (inactive) | 62.2 µM (inactive) | 74.1 µM (inactive) | > 100 µM (inactive) | > 100 µM (inactive) |  | > 100 µM (inactive) | 32.4 µM (inactive) | 47.6 µM (inactive) | > 100 µM (inactive) | > 100 µM (inactive) | > 100 µM (inactive) | 44.5 µM (inactive) | > 100 µM (inactive) | > 100 µM (inactive) | > 100 µM (inactive) | > 100 µM (inactive) | > 100 µM (inactive) | > 100 µM (inactive) | > 100 µM (inactive)
CSc1[nH]nc(N)c1C(=O)Nc1ccccc1 | > 100 µM (inactive) |  | > 100 µM (inactive) | > 100 µM (inactive) |  | > 100 µM (inactive) | > 100 µM (inactive) | > 100 µM (inactive) | > 100 µM (inactive) | > 100 µM (inactive) | > 100 µM (inactive) | > 100 µM (inactive) | > 100 µM (inactive) | > 100 µM (inactive) | > 100 µM (inactive) | > 100 µM (inactive) | > 100 µM (inactive) | > 100 µM (inactive) | > 100 µM (inactive) | > 100 µM (inactive)
N#CCc1nc(-c2cc3ccccc3oc2=O)cs1 | 45.8 µM (inactive) | 42.5 µM (inactive) | > 100 µM (inactive) | 30.5 µM (inactive) | 62.7 µM (inactive) | 33.7 µM (inactive) | 26.4 µM (inactive) | > 100 µM (inactive) | > 100 µM (inactive) |  | 80.5 µM (inactive) | 29.8 µM (inactive) | 83.9 µM (inactive) | > 100 µM (inactive) | 25.4 µM (inactive) | 65.8 µM (inactive) | 37.2 µM (inactive) | 44.6 µM (inactive) | 56.9 µM (inactive) | > 100 µM (inactive)
O=S1(=O)c2ccccc2N2C(c3ccccc3)=NOC2(c2ccccc2)CC1c1ccc(Br)cc1 (configuration not stated) | > 100 µM (inactive) | > 100 µM (inactive) | > 100 µM (inactive) | > 100 µM (inactive) | > 100 µM (inactive) |  | > 100 µM (inactive) | > 100 µM (inactive) | > 100 µM (inactive) | > 100 µM (inactive) | > 100 µM (inactive) | > 100 µM (inactive) | > 100 µM (inactive) | > 100 µM (inactive) | > 100 µM (inactive) | > 100 µM (inactive) | > 100 µM (inactive) | > 100 µM (inactive) | > 100 µM (inactive) | > 100 µM (inactive)
Brc1ccc(/N=N/c2ccc3ccccc3n2)cc1 |  | 13.5 µM (inactive) | 14.2 µM (inactive) | > 100 µM (inactive) |  | 18.1 µM (inactive) | 20.7 µM (inactive) | 28 µM (inactive) | 16.7 µM (inactive) |  | 12.9 µM (inactive) | 22 µM (inactive) | 22.2 µM (inactive) | 46.9 µM (inactive) | > 100 µM (inactive) | 12.8 µM (inactive) | 31.8 µM (inactive) | 64.3 µM (inactive) | 18 µM (inactive) | 40.4 µM (inactive)
Cc1nc(N)c(N2CCN(C(=O)O)CC2)c(O)n1 | > 100 µM (inactive) | > 100 µM (inactive) | > 100 µM (inactive) | > 100 µM (inactive) | > 100 µM (inactive) | > 100 µM (inactive) |  | > 100 µM (inactive) | > 100 µM (inactive) | > 100 µM (inactive) | > 100 µM (inactive) | > 100 µM (inactive) | > 100 µM (inactive) | > 100 µM (inactive) | > 100 µM (inactive) | > 100 µM (inactive) | > 100 µM (inactive) | > 100 µM (inactive) | > 100 µM (inactive) | > 100 µM (inactive)
